Where a name gives a salt, the structure may show the parent alone.
What was measured:
[1] = target: Cbl-b (Homo sapiens (Human), UniProt Q13191); assay: Cbl-b LCK Ub TR-FRET assay (Cbl-b Lck HTRF); assay type: biochemical
Method in brief: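 TR-FRET (340 nm excitation, 615/665 nm emission) read after adding HA-ubiquitin–UBE2D2 thioester, anti-HA-D2 and streptavidin-Eu. Beforehand, compounds incubated 60 min with biotinylated Cbl-b, then 90 min with His-LCK and ATP (1 mM in 2× mix); IC50 from 10 concentrations, DMSO high and no-LCK low controls.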

[2] = target: c-Cbl (Homo sapiens (Human), UniProt P22681); assay: C-Cbl LCK Ub TR-FRET assay (c-cbl Lck HTRF); assay type: biochemical; conditions: for (fold-selectivity): C-cbl Lck HTRF IC50 relative to Cbl-b Lck HTRF IC50
Sequence of c-Cbl (P22681 47-435): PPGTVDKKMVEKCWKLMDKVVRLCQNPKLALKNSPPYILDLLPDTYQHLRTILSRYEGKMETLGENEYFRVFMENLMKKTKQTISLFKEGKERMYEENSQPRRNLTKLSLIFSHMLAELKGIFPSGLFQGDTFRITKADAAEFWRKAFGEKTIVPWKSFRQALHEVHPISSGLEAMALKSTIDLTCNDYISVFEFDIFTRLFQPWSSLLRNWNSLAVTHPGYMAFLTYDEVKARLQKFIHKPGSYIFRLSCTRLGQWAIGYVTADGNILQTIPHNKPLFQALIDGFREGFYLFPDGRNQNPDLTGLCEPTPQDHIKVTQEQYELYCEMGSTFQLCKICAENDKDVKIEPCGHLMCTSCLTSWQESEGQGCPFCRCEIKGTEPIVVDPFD
Method in brief: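 Detection reagents added, brief spin, 20 min RT. IC50 fit normalized to no-LCK (low) and DMSO (high) controls.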

Sequence of Cbl-b (Q13191 40-426): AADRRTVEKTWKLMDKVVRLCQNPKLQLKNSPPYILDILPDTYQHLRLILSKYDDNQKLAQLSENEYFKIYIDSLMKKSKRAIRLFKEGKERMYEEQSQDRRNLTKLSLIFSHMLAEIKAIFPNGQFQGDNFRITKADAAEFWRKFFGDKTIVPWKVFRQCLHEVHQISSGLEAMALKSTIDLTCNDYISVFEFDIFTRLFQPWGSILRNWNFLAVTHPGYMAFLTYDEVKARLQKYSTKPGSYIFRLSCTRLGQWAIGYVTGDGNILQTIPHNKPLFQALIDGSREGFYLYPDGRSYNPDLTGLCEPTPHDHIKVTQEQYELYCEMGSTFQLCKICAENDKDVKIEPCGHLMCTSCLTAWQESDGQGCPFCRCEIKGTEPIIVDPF

What does the source list for `Cn1cnnc1[C@H](F)C1(c2cccc(N3Cc4c(cc(CN5CC6(C5)CS(=O)(=O)C6)cc4C(F)(F)F)C3=O)c2)COC1` [Compound 181, (R)-6-((2,2-dioxido-2-thia-6-azaspiro[3.3]heptan-6-yl)methyl)-2-(3-(3-(fluoro(4-methyl-4H-1,2,4-triazol-3-yl)methyl)oxetan-3-yl)phenyl)-4-(trifluoromethyl)isoindolin-1-one]?
IC50 [1]: 52 nM; IC50 [2]: 110 nM; (fold-selectivity) [2]: 2.1x

Which results are given for `Cn1cnnc1[C@H](F)C1(c2cccc(N3Cc4c(cc(CNC5(C)CCC5)cc4C(F)(F)F)C3=O)c2)CC(F)(F)C1` [Compound 464, (R)-2-(3-(3,3-difluoro-1-(fluoro(4-methyl-4H-1,2,4-triazol-3-yl)methyl)cyclobutyl)phenyl)-6-(((1-methylcyclobutyl)amino)methyl)-4-(trifluoromethyl)isoindolin-1-one]?
IC50 [1]: 12 nM; IC50 [2]: 12 nM; (fold-selectivity) [2]: (1.0x)

How did the IC50 [1] turn out when `CN(C)C(=O)CNc1cc(C2(Cc3nncn3C)CCC2)cc(N2Cc3c(cc(CNC4(C)CCC4)cc3C(F)(F)F)C2=O)n1` [Compound 311, N,N-dimethyl-2-((4-(1-((4-methyl-4H-1,2,4-triazol-3-yl)methyl)cyclobutyl)-6-(6-(((1-methylcyclobutyl)amino)methyl)-1-oxo-4-(trifluoromethyl)isoindolin-2-yl)pyridin-2-yl)amino)acetamide formate] was run?
The IC50 was 110 nM.

And the IC50 [2]?
Its IC50 is 140 nM.

With `COC1(C)CN(Cc2cc3c(c(C(F)(F)F)c2)CN(c2cccc(C4([C@H](F)c5nncn5C)COC4)c2)C3=O)C1` [Compound 180, (S)-2-(3-(3-(fluoro(4-methyl-4H-1,2,4-triazol-3-yl)methyl)oxetan-3-yl)phenyl)-6-((3-methoxy-3-methylazetidin-1-yl)methyl)-4-(trifluoromethyl)isoindolin-1-one] as the molecule, how does the IC50 [1] read?
The IC50 was 220 nM.

What about the IC50 [2] of the same molecule?
Its IC50 is 430 nM.

And the “(fold-selectivity)” value [2]?
The value was 1.9x.

What does the source list for `CC(C)[C@H]1CN(C)CCN1Cc1cc2c(c(C(F)(F)F)c1)CN(c1cc(C3(Cc4nncn4C)COC3)cc(NC3CCCC3)n1)C2=O` [Compound 297, (S)-2-(6-(cyclopentylamino)-4-(3-((4-methyl-4H-1,2,4-triazol-3-yl)methyl)oxetan-3-yl)pyridin-2-yl)-6-((2-isopropyl-4-methylpiperazin-1-yl)methyl)-4-(trifluoromethyl)isoindolin-1-one formate]?
IC50 [1]: 9.1 nM; IC50 [2]: 8 nM

What does the source list for `CN(C)CCNc1cc(C2(Cc3nncn3C)CCC2)cc(N2Cc3c(cc(CNC4(C)CCC4)cc3C(F)(F)F)C2=O)n1` [Compound 337, 2-(6-((2-(dimethylamino)ethyl)amino)-4-(1-((4-methyl-4H-1,2,4-triazol-3-yl)methyl)cyclobutyl)pyridin-2-yl)-6-(((1-methylcyclobutyl)amino)methyl)-4-(trifluoromethyl)isoindolin-1-one]?
IC50 [1]: 2400 nM; IC50 [2]: 1100 nM; (fold-selectivity) [2]: (0.45x)

How did the IC50 [1] turn out when `CCNc1cc(N2Cc3c(cc(CNC4(C)CCC4)cc3C(F)(F)F)C2=O)cc(C2(Cc3nncn3C)CCC2)c1` [Compound 463, 2-(3-(ethylamino)-5-(1-((4-methyl-4H-1,2,4-triazol-3-yl)methyl)cyclobutyl)phenyl)-6-(((1-methylcyclobutyl)amino)methyl)-4-(trifluoromethyl)isoindolin-1-one] was run?
Its IC50 is 6 nM.

What about the IC50 [2] of the same molecule?
The IC50 was 3.5 nM.

What about the “(fold-selectivity)” value [2] of the same molecule?
The value was “(0.55x)”.

With `CC(C)N(C)Cc1cc2c(c(C(F)(F)F)c1)CN(c1cccc(C3(Cc4nncn4C)CC(F)(F)C3)c1)C2=O` [Compound 416, 2-(3-(3,3-difluoro-1-((4-methyl-4H-1,2,4-triazol-3-yl)methyl)cyclobutyl)phenyl)-6-((isopropyl(methyl)amino)methyl)-4-(trifluoromethyl)isoindolin-1-one] as the molecule, how does the IC50 [1] read?
The IC50 was 92 nM.

And the IC50 [2]?
Its IC50 is 110 nM.

What about the “(fold-selectivity)” value [2] of the same molecule?
Its value is “(1.2x)”.

From patent US20250230147A1, “LACTAMS AS CBL-B INHIBITORS” (Genentech, Inc., priority 2021, published 2025)
